We go through four compounds from US20030129629A1, “Methods and compositions for the identification, assessment, prevention, and therapy of human cancers” (Millennium Pharmaceuticals, Inc., priority 2000, published 2003).

Values joined by “and” are separate entries in the source; they are usually repeats but may differ in a detail not shown here. Identical values can stand only once. Like-named read-outs stand apart in the source and are kept apart here.

The subject of assay [1] is 60 cancer cell lines (NCI 60 cancer cell line series). To be noted: cited from earlier work.
For assay [2] the test system is unchanged. The experiment in a line: NCI-DTP in vitro cancer screen, sulforhodamine B (SRB) growth inhibition, 48 hour exposure. Format: cell-based, human. In short, it runs like this: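 NCI-DTP panel of 60 cancer cell lines plated day 0 at line-specific densities, exposed from day 1 to compound at 5 ten-fold-spaced doses in duplicate wells. After 48 h, cell mass stained with sulforhodamine B; −log GI50 derived from dose–response curves, averaged, and classed Low, Medium or High sensitivity.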

Take `CC[C@@]1(O)C(=O)OCc2c1cc1n(c2=O)Cc2cc3c(CN(C)C)c(O)ccc3nc2-1` [Topotecan]: the “−Log (GI50)” value in assay [1] (CNS SF-268 CL12014) was 7.7; in assay [1] (Leukemia CCRF-CEM(I) CL7003), 7.9; in assay [1] (Leukemia MOLT-4 CL7006), 7.9; in assay [1] (NSCLC HOP-62 CL1026) it was 7.9; in assay [1] (NSCLC NCI-H23(I) CL1001), 7.4; in assay [1] (NSCLC NCI-H460 CL1021) it was 7.7.

Turning to `O=C1c2c(O)ccc(O)c2C(=O)c2c(NCCNCCO)ccc(NCCNCCO)c21` [Mitoxantrone], the “classification of cell line as Low(1), Medium(2), High(3) sensitivity to compound” value (shortened to “classification of cell line”) in assay [2] (Breast BT-549 CL5013) was 2; in assay [2] (Breast HS-578T CL5006), 2; in assay [2] (Breast MCF7(I) CL5001), 3; in assay [2] (Breast MCF7/ADRr CL5002) it was 1; in assay [2] (Breast MDA-MB-231 CL5005), 1; in assay [2] (Breast MDA-MB-435 CL5011) it was 1. The “classification of cell line” value in assay [2] (Breast MDA-N CL5012) amounted to 1; in assay [2] (Breast T-47D CL5014), 2; in assay [2] (CNS SF-268 CL12014) it was 2; in assay [2] (CNS SF-295 CL12015), 2; in assay [2] (CNS SF-539 CL12016), 3; in assay [2] (CNS SNB-19 CL12002) it was 3. For the same compound, the “classification of cell line” value in assay [2] (CNS SNB-75(I) CL12005) is recorded as 3; in assay [2] (CNS U251(I) CL12009), 3; in assay [2] (Colon COLO-250 CL4010) it was 2; in assay [2] (Colon HCC-2998 CL4002), 1; in assay [2] (Colon HCT-15 CL4015) it was 1; in assay [2] (Colon HCT-116 CL4003), 2. The “classification of cell line” value in assay [2] (Colon HT29(I) CL4001) is on record as 1; in assay [2] (Colon KM12 CL4017) it was 1; in assay [2] (Colon SW-620 CL4009), 2; in assay [2] (Leukemia CCRF-CEM(I) CL7003), 3; in assay [2] (Leukemia HL-60(I) CL7008), 3; in assay [2] (Leukemia K562(I) CL7005), 2. Also, the “classification of cell line” value in assay [2] (Leukemia MOLT-4 CL7006) amounted to 3; in assay [2] (Leukemia RPMI-8226(I) CL7010), 2; in assay [2] (Leukemia SR CL7019), 3; in assay [2] (Melanoma LOX IMVI CL10001), 2; in assay [2] (Melanoma M14 CL10014) it was 2; in assay [2] (Melanoma MALME-3M CL10002) it was 2. Moreover, the “classification of cell line” value in assay [2] (Melanoma SK-MEL-2 CL10005) stood at 1; in assay [2] (Melanoma SK-MEL-5 CL10007), 2; in assay [2] (Melanoma SK-MEL-28 CL10008) it was 1; in assay [2] (Melanoma UACC-62 CL10020), 2; in assay [2] (Melanoma UACC-257 CL10021) it was 1; in assay [2] (NSCLC A549/ATCC CL1004) it was 3. The “classification of cell line” value in assay [2] (NSCLC EKVX CL1008) is 1; in assay [2] (NSCLC HOP-62 CL1026), 3; in assay [2] (NSCLC HOP-92 CL1029) it was 3; in assay [2] (NSCLC NCI-H226 CL1013) it was 3. The “sensitivity classification Low(1)/Medium(2)/High(3)” value in assay [2] (NSCLC NCI-H23(I) CL1001) is listed as 2; in assay [2] (NSCLC NCI-H332M CL1017) it was 1; in assay [2] (NSCLC NCI-H460 CL1021), 3; in assay [2] (NSCLC NCI-H522 CL1003), 2; in assay [2] (Ovarian IGROV1 CL6010), 2; in assay [2] (Ovarian OVCAR-3 CL6001), 1. For the same compound, the “sensitivity classification Low(1)/Medium(2)/High(3)” value is 1 in assay [2] (Ovarian OVCAR-4 CL6002); 1 in assay [2] (Ovarian OVCAR-5 CL6003); 2 in assay [2] (Ovarian OVCAR-8 CL6005); 2 in assay [2] (Ovarian SK-OV-3 CL6011); 2 in assay [2] (Prostate DU-145 CL11003); 2 in assay [2] (Prostate PC-3(I) CL11001). For the same compound, the “sensitivity classification Low(1)/Medium(2)/High(3)” value in assay [2] (Renal 786-0 CL9018) is given as 2; in assay [2] (Renal A498 CL9013) it was 2; in assay [2] (Renal ACHN CL9023), 3; in assay [2] (Renal CAKI-1 CL9015) it was 3; in assay [2] (Renal RXF-393 CL9016) it was 2; in assay [2] (Renal SN12C CL9008), 3. The “sensitivity classification Low(1)/Medium(2)/High(3)” value in assay [2] (Renal TK10 CL9024) and in assay [2] (Renal UO-31 CL9004) was 1 in each case.

With `Nc1ccn([C@@H]2O[C@H](CO)[C@@H](O)[C@@H]2O)c(=O)n1` [AraC], in assay [2], the “classification of cell line” value was 3 and 2 and 1; the “sensitivity classification Low(1)/Medium(2)/High(3)” value is 3 and 2 and 1.

For `O=NN(CCCl)C(=O)NCCCl` [BCNU], the “sensitivity classification Low(1)/Medium(2)/High(3)” value in assay [2] was 2 and 1 and 3.
